# Target: T1, SorT (Sinorhizobium meliloti, UniProt Q92M24)
# T1 construct: gene SMc04049; recombinant periplasmic SorT, purified as in Low et al. 2011; homodimer; 33 N-terminal residues not seen in the complex crystal
# T1 sequence (Q92M24 32-399): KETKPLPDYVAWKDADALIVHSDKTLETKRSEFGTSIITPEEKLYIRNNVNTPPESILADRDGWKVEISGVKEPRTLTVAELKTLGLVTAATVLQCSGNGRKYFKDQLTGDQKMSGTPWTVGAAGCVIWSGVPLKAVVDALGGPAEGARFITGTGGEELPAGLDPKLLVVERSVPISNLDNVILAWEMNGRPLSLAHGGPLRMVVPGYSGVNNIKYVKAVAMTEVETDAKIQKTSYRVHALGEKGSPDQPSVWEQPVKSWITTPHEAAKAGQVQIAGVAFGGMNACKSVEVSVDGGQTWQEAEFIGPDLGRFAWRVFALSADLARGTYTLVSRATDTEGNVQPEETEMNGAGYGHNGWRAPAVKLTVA
# Assay: sulfite dehydrogenase assay, SorU reduction at […] nm
# Type: biochemical
# Conditions: electron acceptor SorU
structure (smiles),measurement,value
O=S(O)O [sulfite],"sulfite dehydrogenase assay, SorU reduction at 550 nm",Sulfite dehydrogenase enzyme assays were carried out as described previously

# — article PMC4760952, “Structural basis of interprotein electron transfer in bacterial sulfite oxidation” (eLife, 2015)
